From patent US10670605B2, “Cysteine reactive probes and uses thereof” (The Scripps Research Institute, priority 2015, dated 2020)
Counter-ions that a name gives are not always drawn. Values belong to the compound of their own block, whether it stands above or below them.

What was measured:
primary human T cells [1] = experiment: IL-2 release (ELISA), anti-CD3 + anti-CD28 stimulated T cells; format: cell-based; settings: anti-CD3, anti-CD28 stimulation, 8 h
Protocol: 96-well plates were coated with anti-CD3 (1:200; BioXcell) and anti-CD28 (1:500; 302933; BioLegend) in PBS (100 μL/well) overnight at 4° C. The plates were then washed twice with PBS and to each well was added 500,000 primary T cells in 100 μL of RPMI supplemented with 10% FBS, glutamine, and Pen-Strep. Cells were then treated with 100 μL of media containing compound at the indicated concentrations (final well volume of 200 μL). Cells were left at 37° C. in a 5% CO2 incubator for the indicated periods of time and harvested by centrifugation (500 g, 8 min, 4° C.), followed by washing with PBS. T cells were harvested and stimulated as described above. At the indicated time points, cell culture supernatants were collected and IL-2 levels were measured in clear microplates (991427; R&D Systems) according to the manufacturer's instructions (Human IL-2 DuoSet ELISA; DY202; R&D Systems). Plates were read in a Gemini SpectraMax 250 microplate reader set to 450 nm. Data represent mean±SE for four experiments per group.

[2] = test system: Nrf2(+/+) and (-/-) T cells; experiment: CD25 expression in Nrf2(+/+) and (-/-) T cells; format: cell-based, mouse; settings: 24 h
Protocol: C57BL/6J and Nrf2^-/- mice (Stock No:017009; […]: Jackson Labs) were bred and maintained in a closed breeding facility at The Scripps Research Institute and were 6-8 weeks old when used in experiments. All mice were used in accordance with guidelines from the Institutional Animal Care and Use Committee of The Scripps Research Institute. Spleens were harvested from female mice, perfused with collagenase, and incubated at 37° C. with 5% CO2 for 30 min. After this time, the spleens were homogenized. Cells that passed through a 100 μm cell strainer were collected and washed with RPMI. T cells were isolated from the splenocytes using the EasySepTM Mouse T cell Isolation Kit (19851; […]) according to manufacturer's instructions. 96-well plates were coated with anti-CD3 (1:200; BioXcell) and anti-CD28 (1:500; 302933; BioLegend) in PBS (100 μL/well) overnight at 4° C. The plates were then washed twice with PBS and to each well was added 500,000 primary T cells in 100 μL of RPMI supplemented with 10% FBS, glutamine, and Pen-Strep. Cells were then treated with 100 μL of media containing compound at the indicated concentrations (final well volume of 200 μL). Cells were left at 37° C. in a 5% CO2 incubator for the indicated periods of time and harvested by centrifugation (500 g, 8 min, 4° C.), followed by washing with PBS. […] Data was then analyzed with FlowJo software (Treestar Inc.). […]

primary human T cells [3] = test system: primary human T cells
MKI67 C903 (P46013) = MKI67 C903 (P46013) (Homo sapiens, UniProt P46013); experiment: Competitive isoTOP-ABPP in situ; format: cell-based; settings: fragment 2 at 200 μM, MDA-MB-231 cells
Chain of MKI67 C903 (P46013) (P46013 whole entry, the tested form may be a part): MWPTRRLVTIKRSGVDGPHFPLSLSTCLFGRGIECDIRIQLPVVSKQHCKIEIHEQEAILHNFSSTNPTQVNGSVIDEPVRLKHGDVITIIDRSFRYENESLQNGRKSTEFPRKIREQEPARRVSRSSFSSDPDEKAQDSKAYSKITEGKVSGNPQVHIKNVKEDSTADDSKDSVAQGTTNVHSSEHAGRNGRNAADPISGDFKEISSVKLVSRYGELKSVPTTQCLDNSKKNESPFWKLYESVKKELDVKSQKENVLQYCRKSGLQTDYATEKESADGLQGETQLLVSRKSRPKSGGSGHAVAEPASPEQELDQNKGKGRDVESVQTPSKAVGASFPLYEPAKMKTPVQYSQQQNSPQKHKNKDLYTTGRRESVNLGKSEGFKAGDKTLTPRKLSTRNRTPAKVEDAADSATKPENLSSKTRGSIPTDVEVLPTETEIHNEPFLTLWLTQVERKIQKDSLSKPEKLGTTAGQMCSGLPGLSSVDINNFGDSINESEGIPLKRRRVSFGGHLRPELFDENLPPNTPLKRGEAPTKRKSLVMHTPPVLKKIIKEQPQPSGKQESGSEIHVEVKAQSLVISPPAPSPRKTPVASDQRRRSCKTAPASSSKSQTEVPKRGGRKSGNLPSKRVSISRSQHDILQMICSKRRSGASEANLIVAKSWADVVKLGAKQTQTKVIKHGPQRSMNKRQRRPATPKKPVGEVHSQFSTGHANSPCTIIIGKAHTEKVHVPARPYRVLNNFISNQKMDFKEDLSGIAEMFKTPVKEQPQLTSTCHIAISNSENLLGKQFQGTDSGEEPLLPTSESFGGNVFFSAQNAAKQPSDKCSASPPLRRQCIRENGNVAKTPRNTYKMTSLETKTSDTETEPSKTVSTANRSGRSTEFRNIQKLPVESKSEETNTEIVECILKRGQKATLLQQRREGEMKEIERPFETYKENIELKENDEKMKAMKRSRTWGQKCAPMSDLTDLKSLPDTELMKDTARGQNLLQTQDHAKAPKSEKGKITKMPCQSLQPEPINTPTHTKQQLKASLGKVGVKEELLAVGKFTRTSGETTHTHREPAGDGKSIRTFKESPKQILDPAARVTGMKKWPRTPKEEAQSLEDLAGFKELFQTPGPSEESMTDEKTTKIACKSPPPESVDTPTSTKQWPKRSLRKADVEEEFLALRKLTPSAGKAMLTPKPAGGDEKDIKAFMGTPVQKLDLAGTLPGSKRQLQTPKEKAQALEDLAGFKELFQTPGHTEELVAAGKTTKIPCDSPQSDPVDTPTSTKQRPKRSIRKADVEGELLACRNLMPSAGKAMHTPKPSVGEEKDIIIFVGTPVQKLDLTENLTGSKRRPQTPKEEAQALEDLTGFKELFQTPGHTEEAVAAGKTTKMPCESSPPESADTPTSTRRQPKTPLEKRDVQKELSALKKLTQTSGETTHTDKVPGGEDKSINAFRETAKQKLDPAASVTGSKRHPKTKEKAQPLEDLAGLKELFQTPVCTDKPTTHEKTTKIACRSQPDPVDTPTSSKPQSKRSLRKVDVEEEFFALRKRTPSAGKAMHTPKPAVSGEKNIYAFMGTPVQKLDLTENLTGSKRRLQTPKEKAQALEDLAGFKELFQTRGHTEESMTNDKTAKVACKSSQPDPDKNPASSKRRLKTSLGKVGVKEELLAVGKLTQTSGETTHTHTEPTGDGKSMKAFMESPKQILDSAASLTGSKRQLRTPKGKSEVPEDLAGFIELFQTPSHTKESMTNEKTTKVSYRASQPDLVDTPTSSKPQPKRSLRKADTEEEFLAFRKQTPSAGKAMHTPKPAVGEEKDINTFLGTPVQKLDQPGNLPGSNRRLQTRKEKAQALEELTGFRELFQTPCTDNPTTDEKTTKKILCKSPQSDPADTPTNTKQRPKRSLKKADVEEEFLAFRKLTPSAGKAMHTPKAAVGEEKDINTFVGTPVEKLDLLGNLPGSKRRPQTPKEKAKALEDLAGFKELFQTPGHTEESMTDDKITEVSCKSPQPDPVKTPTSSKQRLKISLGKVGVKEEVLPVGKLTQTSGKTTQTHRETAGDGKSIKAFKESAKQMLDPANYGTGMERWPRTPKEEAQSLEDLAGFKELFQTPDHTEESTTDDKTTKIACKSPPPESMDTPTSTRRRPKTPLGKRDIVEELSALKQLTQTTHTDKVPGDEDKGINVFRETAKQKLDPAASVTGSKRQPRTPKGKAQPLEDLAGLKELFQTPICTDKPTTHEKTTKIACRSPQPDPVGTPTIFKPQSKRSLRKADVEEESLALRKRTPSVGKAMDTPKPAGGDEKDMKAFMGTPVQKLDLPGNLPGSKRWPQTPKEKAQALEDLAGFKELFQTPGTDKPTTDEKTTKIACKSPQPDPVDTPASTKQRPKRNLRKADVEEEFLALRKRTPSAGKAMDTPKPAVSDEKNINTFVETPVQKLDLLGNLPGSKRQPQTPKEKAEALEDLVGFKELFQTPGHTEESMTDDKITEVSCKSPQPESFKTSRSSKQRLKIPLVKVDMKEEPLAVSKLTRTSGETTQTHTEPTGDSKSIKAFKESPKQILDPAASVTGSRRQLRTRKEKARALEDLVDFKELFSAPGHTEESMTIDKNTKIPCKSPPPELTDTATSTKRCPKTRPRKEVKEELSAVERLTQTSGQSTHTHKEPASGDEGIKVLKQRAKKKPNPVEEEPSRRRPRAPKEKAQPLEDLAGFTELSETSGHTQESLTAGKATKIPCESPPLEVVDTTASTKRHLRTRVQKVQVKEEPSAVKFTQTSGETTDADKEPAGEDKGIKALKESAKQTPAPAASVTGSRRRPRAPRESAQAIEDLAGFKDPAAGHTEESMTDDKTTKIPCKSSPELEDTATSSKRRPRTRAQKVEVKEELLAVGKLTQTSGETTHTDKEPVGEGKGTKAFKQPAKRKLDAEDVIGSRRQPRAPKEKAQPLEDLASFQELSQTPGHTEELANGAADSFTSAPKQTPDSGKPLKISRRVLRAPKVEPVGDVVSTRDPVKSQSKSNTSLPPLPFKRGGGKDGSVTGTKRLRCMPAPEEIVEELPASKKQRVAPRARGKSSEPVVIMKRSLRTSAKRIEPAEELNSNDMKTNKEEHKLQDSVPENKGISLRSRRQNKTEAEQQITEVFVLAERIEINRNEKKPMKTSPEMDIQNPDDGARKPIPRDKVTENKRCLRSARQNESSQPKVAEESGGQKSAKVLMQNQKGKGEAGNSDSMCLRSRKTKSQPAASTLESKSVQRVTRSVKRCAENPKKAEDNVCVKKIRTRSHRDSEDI

WAPAL C160 (Q7Z5K2) = WAPAL C160 (Q7Z5K2) (Homo sapiens, UniProt Q7Z5K2); experiment: Competitive isoTOP-ABPP in situ; format: cell-based; settings: fragment 2 at 200 μM, MDA-MB-231 cells
Chain of WAPAL C160 (Q7Z5K2) (Q7Z5K2 whole entry, the tested form may be a part): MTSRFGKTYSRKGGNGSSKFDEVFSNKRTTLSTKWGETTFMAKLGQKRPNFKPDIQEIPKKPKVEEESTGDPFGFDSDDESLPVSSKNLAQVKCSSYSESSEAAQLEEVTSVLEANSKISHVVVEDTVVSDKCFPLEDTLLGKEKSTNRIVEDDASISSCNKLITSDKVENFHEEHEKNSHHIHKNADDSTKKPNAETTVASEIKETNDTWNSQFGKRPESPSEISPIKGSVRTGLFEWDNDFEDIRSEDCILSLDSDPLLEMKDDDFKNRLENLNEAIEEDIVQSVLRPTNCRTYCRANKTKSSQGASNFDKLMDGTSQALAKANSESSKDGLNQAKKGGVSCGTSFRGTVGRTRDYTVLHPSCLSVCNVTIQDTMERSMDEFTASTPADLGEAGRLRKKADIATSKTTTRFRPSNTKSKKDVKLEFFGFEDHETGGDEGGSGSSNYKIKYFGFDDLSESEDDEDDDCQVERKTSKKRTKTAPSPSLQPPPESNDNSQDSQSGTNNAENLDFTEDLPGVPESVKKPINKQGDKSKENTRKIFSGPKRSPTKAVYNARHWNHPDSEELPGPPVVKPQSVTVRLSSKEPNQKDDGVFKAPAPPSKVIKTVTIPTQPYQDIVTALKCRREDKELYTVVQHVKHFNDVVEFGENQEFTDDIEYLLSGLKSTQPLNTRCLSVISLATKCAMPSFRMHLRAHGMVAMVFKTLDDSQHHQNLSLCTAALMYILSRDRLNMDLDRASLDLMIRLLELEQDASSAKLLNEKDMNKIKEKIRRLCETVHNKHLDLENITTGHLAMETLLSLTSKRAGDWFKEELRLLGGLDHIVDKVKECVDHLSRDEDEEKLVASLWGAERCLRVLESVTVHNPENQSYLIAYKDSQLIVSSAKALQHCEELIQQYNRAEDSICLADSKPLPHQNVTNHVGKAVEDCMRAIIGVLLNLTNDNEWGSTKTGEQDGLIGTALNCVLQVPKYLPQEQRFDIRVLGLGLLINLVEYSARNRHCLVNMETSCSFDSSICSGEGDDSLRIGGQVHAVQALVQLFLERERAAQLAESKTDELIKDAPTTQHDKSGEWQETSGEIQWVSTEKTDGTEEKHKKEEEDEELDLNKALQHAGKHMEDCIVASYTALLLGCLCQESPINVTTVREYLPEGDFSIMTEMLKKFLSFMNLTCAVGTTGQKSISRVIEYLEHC

MLTK (ZAK) C22 = target: T1, MLTK (ZAK) C22 (Homo sapiens, UniProt Q9NYL2); experiment: Blockade of ibrutinib-derived probe 59 labeling of MLTK (gel-based ABPP); format: binding
T1 construct: expressed in transfected cells
Protocol: CuAAC was performed with 20 μM rhodamine-azide (50× stock in DMSO), 1 mM tris(2-carboxyethyl)phosphine hydrochloride (TCEP; fresh 50× stock in water, final concentration=1 mM), ligand (17× stock in DMSO:t-butanol 1:4, final concentration=100 μM) and 1 mM CuSO4 (50× stock in water, final concentration=1 mM). […] Quenched reactions were analyzed by SDS-PAGE and visualized by in-gel fluorescence. […] For MLTK, HEK 293T cells stably overexpressing MTLK^2 were treated with the indicated fragment electrophiles for 1 h, followed by labeling with 59 (1 μl, of 125 μM, final concentration=5 μM) for 1 h. These were followed by CuAAC conjugation to rhodamine-azide and evaluation by SDS-PAGE as described above.

TIGAR = target: T2, TIGAR (Homo sapiens, UniProt Q9NQ88); experiment: TIGAR activity assay; format: biochemical; settings: WT-TIGAR, concentration series
T2 construct: His6 (N); made in house; host or cells: E. coli BL21(DE3)
T2 sequence (Q9NQ88 whole entry): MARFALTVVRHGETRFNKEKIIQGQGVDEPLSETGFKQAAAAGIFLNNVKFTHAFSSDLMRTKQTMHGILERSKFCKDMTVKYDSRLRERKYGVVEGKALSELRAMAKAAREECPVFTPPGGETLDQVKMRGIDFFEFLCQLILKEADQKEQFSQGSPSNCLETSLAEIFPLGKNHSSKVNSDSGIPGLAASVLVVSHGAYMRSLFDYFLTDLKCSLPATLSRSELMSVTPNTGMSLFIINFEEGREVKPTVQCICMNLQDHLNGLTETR
Protocol: TIGAR activity assay was conducted as described in Gerin et al. The Biochemical Journal 458:439-448 (2014). Formation of 3PG (3-phosphoglycerate) production from 23BPG (2,3-bisphosphoglycerate) was measured spectrophotometrically on a TECAN plate reader, measuring decrease in absorbance at 340 nm in clear, flat-bottom 96 well microplate (Corning® Costar®). 2 μL of recombinant TIGAR (10 mg/mL) was diluted into 1 mL dilution buffer (25 mM HEPES, pH 7.1, 25 mM KCl, 1 mM MgCl2). 25 μL of diluted protein was incubated for 1 h with the indicated concentration of compound (1 μL, 25× stock in DMSO). Then 75 μL of assay mixture comprised of 25 mM HEPES (pH 7.1), 25 mM KCl, 1 mM MgCl2, 0.5 mM NADH, 1 mM DTT, 1 mM 23BPG, 1 mM ATP-Mg, the equivalent of 1 μL each of rabbit muscle GAPDH (4000 units/mL, Sigma, G5537) and yeast PG kinase (6300 units/mL, Sigma, P7634) was added to the protein and decrease in absorbance was monitored at 340 nm. The background, calculated from samples lacking TIGAR, was subtracted from samples containing TIGAR. Experiments were performed in quadruplicate.

IDH1 = target: T3, IDH1 (Homo sapiens, UniProt O75874); experiment: IDH1 NADP assay; format: biochemical
T3 construct: Full length cDNAs encoding for IDH1 (Open Biosystems, Clone ID: 3880331) and IMPDH2; His6 (C); made in house; host or cells: E. coli BL21(DE3)
T3 sequence (O75874 whole entry): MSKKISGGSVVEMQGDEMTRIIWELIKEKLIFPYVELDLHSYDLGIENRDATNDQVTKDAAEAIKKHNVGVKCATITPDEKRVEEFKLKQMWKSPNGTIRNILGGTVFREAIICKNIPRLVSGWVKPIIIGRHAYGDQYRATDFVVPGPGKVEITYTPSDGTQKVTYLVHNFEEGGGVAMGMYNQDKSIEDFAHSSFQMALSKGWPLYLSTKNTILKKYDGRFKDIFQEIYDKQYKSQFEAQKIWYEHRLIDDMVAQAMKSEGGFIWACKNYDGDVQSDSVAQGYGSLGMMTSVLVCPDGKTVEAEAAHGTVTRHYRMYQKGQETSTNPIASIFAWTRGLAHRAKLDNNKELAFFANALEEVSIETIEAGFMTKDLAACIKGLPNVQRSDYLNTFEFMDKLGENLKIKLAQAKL
Protocol: To 25 μL of this mixture was added 1 μL of the indicated compound (25× stock solution in DMSO) and the lysates were incubated for 1 h at room temperature in clear 96 well plates (Corning® Costar®). […] Absorbance was measured for 45 minutes and the relative activities were calculated from the change in absorbance for the linear portion of the curve.

Structure (SMILES): COC(=O)/C=C/C(=O)OC [DMF, dimethyl fumarate]
secretion of IL-2 (primary human T cells [1]): strongly inhibited | sensitivity of activation of Nrf2(+/+) and (-/-) T cells [2]: similarly sensitive | T cell viability (primary human T cells [3]): did not impair

isoTOP-ABPP reactivity profile (ratio) 2_200 μM_in-situ_231 (MKI67 C903 (P46013)): 20.0 | isoTOP-ABPP reactivity profile (ratio) 2_200 μM_in-situ_231 (WAPAL C160 (Q7Z5K2)): 20.0
Structure (SMILES): COc1ccc2c(c1)CCCN2C(=O)CCl [compound 2]

blockade of probe 59 labeling of MLTK (in words) (MLTK (ZAK) C22): inactive
Structure (SMILES): O=C(CCl)Nc1cc(C(F)(F)F)cc(C(F)(F)F)c1 [compound 3]

plateau of inhibition of TIGAR substrate turnover (TIGAR): 70%
Structure (SMILES): C=CC(=O)N(c1ccccc1)c1ccc(Br)cc1 [compound 5]

Structure (SMILES): O=C(CCl)N1CCC(C(O)(c2ccccc2)c2ccccc2)CC1 [compound 20]
catalytic activity of WT-IDH1 (NADP+ to NADPH) (IDH1): blocked in a concentration-dependent manner
